Laboratory results published in ChEMBL document CHEMBL3244333, “2-Acetylpyridine thiosemicarbazones. 2. N4,N4-Disubstituted derivatives as potential antimalarial agents” (J Med Chem, 1979).
The source made the active and inactive calls. The calls are words filed in the database; no cut-off is given here.

Assays:
[1] = tested on: Plasmodium berghei; test: Antimalarial activity against Plasmodium berghei KBG 173 infected in mouse assessed as increase of mean survival time at 640 mg/kg; type: functional
[2] = tested on: Plasmodium berghei; test: Antimalarial activity against Plasmodium berghei KBG 173 infected in mouse assessed as increase of mean survival time at 40 mg/kg; type: functional
[3] = tested on: Mus musculus; test: Toxicity in Plasmodium berghei KBG 173 infected mouse at 640 mg/kg; type: organism-based; design: dose 640 mg/kg; details: in vivo
[4] = tested on: Plasmodium berghei; test: Antimalarial activity against Plasmodium berghei KBG 173 infected in mouse assessed as cured animal from parasite infection at 640 mg/kg; type: functional, organism-based; design: dose 640 mg/kg
[5] = tested on: Plasmodium berghei; test: Antimalarial activity against Plasmodium berghei KBG 173 infected in mouse assessed as cured animal from parasite infection at 160 mg/kg; type: functional, organism-based; design: dose 160 mg/kg
[6] = tested on: Mus musculus; test: Toxicity in Plasmodium berghei KBG 173 infected mouse at 160 mg/kg; type: organism-based; design: dose 160 mg/kg; details: in vivo
[7] = tested on: Plasmodium berghei; test: Antimalarial activity against Plasmodium berghei KBG 173 infected in mouse assessed as increase of mean survival time at 80 mg/kg; type: functional
[8] = tested on: Plasmodium berghei; test: Antimalarial activity against Plasmodium berghei KBG 173 infected in mouse assessed as cured animal from parasite infection at 320 mg/kg; type: functional, organism-based; design: dose 320 mg/kg
[9] = tested on: Plasmodium berghei; test: Antimalarial activity against Plasmodium berghei KBG 173 infected in mouse assessed as increase of mean survival time at 160 mg/kg; type: functional
[10] = tested on: Plasmodium berghei; test: Antimalarial activity against Plasmodium berghei KBG 173 infected in mouse assessed as cured animal from parasite infection at 40 mg/kg; type: functional, organism-based; design: dose 40 mg/kg
[11] = tested on: Mus musculus; test: Toxicity in Plasmodium berghei KBG 173 infected mouse at 320 mg/kg; type: organism-based; design: dose 320 mg/kg; details: in vivo
[12] = tested on: Plasmodium berghei; test: Antimalarial activity against Plasmodium berghei KBG 173 infected in mouse assessed as increase of mean survival time at 320 mg/kg; type: functional
[13] = tested on: Mus musculus; test: Toxicity in Plasmodium berghei KBG 173 infected mouse at 40 mg/kg; type: organism-based; design: dose 40 mg/kg; details: in vivo
[14] = tested on: Plasmodium berghei; test: Antimalarial activity against Plasmodium berghei KBG 173 infected in mouse assessed as cured animal from parasite infection at 80 mg/kg; type: functional, organism-based; design: dose 80 mg/kg

Row | SMILES | Survival [1] | Survival [2] | Activity [3] | Activity [4] | Activity [5] | Activity [6] | Survival [7] | Activity [8] | Survival [9] | Activity [10] | Activity [11] | Survival [12] | Activity [13] | Activity [14]
1 | C/C(=N/NC(=S)N1CCN(c2ccccn2)CC1)c1ccccn1.Cl | 0 days | 3.2 days | Toxic |  |  |  |  |  |  |  |  |  |  | 
2 | C/C(=N/NC(=S)N1CCCC(C)C1)c1ccccn1 (centres undefined) | 0 days | 4.1 days | Toxic | Active | Active | Toxic |  |  |  |  |  |  |  | 
3 | C/C(=N/NC(=S)N1CCC(Cc2ccccc2)CC1)c1ccccn1 |  | 0.4 days |  | Active | Active |  | 2.8 days | Active |  |  |  |  |  | 
4 | C/C(=N/NC(=S)N1CCC(C)CC1)c1ccccn1 | 0 days |  | Toxic | Active | Active | Toxic |  |  | 0 days | Active |  |  |  | 
5 | C/C(=N/NC(=S)N1C(C)CCCC1C)c1ccccn1 (centres undefined) |  | 0.5 days | Toxic | Active |  |  | 1.6 days | Active | 6.3 days |  |  |  |  | 
6 | C/C(=N/NC(=S)N1CCN(c2ccccn2)CC1)c1ccccn1 [listing 1 of 2 here] | 0 days |  | Toxic |  |  |  |  |  |  |  | Toxic | 0.7 days |  | 
7 | C/C(=N/NC(=S)N1CCC2(CC1)OCCO2)c1ccccn1 | 0 days | 0 days | Toxic |  | Active | Toxic |  |  | 0 days | Active |  |  | Toxic | 
8 | C/C(=N/NC(=S)N(C)C)c1ccccn1 | 0 days | 0.5 days | Toxic | Active | Active | Toxic |  |  | 0 days |  |  |  | Toxic | 
9 | C/C(=N/NC(=S)N1CCN(c2ccc(F)cc2)CC1)c1ccccn1 | 9 days |  |  | Active | Active |  |  |  |  | Active |  |  |  | 
10 | C/C(=N/NC(=S)N1CCCCCCC1)c1ccccn1 |  | 0.6 days |  | Active | Active |  |  | Active |  |  |  |  |  | Active
11 | CCCN(CCC)C(=S)N/N=C(/C)c1ccccn1 | 3 days | 0 days |  |  | Active | Toxic |  |  | 0 days | Active |  |  | Toxic | 
12 | C/C(=N/NC(=S)N1CCN(c2cccc(C(F)(F)F)c2)CC1)c1ccccn1 |  | 0.1 days | Toxic | Active | Active |  | 2.4 days | Active |  |  | Toxic |  |  | 
13 | C/C(=N/NC(=S)N(Cc1ccccc1)Cc1ccccc1)c1ccccn1 | -0.2 days | -0.1 days | Toxic |  |  | Toxic |  |  | 1.6 days |  |  |  |  | 
14 | C/C(=N/NC(=S)N1CCN(c2ccccn2)CC1)c1ccccn1 [listing 2 of 2 here] |  |  |  | Active | Active |  |  | Active |  | Active |  |  |  | Active
15 | C/C(=N/NC(=S)N(C)C1CCCCCCC1)c1ccccn1 | 12.1 days | 3.2 days | Toxic | Active | Active |  | 9.6 days | Active |  |  |  |  |  | Active
16 | C/C(=N/NC(=S)N1CCCCCC1)c1ccccn1 |  | 6.2 days | Toxic | Active | Active | Toxic |  | Active |  | Active | Toxic |  |  | Active
17 | C/C(=N/NC(=S)N1CC(C)OC(C)C1)c1ccccn1 (centres undefined) | 0 days |  | Toxic | Active | Active | Toxic |  |  | 0 days | Active |  |  | Toxic | 
18 | CCOC(=O)N1CCN(C(=S)N/N=C(/C)c2ccccn2)CC1 | 0 days |  | Toxic | Active | Active | Toxic |  |  | 0 days | Active |  |  | Toxic | 
19 | C/C(=N/NC(=S)N1CC=C(c2ccccc2)CC1)c1ccccn1 |  | 0.8 days |  | Active | Active |  | 2 days | Active |  |  |  |  |  | 
20 | C/C(=N/NC(=S)N1CCCC1)c1ccccn1 | 0 days | 8.9 days | Toxic | Active | Active | Toxic |  |  | 0 days | Active |  |  | Toxic | 

Row | SMILES | Survival [1] | Survival [2] | Activity [3] | Activity [4] | Activity [5] | Activity [6] | Survival [7] | Activity [8] | Survival [9] | Activity [10] | Activity [11] | Survival [12] | Activity [13] | Activity [14]
21 | C/C(=N/NC(=S)N1CCC(O)CC1)c1ccccn1 | 0.6 days | -0.1 days | Toxic |  | Active | Toxic |  |  | 0 days |  |  |  | Toxic | 
22 | C/C(=N/NC(=S)N1CC=CCC1)c1ccccn1 | 7.4 days | 4 days | Toxic |  |  | Toxic |  |  | 1.4 days |  |  |  |  | 
23 | CCC1CCCCN1C(=S)N/N=C(/C)c1ccccn1 (centres undefined) | -0.2 days | 5.6 days | Toxic |  | Active |  |  |  |  |  |  |  |  | 
24 | C/C(=N/NC(=S)N1CCCCCCCCCCCC1)c1ccccn1 | 2.9 days | 0 days |  |  |  |  |  |  | 0.1 days |  |  |  |  | 
25 | C/C(=N/NC(=S)N1CCN(Cc2ccccc2)CC1)c1ccccn1 |  | 1.6 days |  | Active |  |  | 4.4 days | Active | 5.6 days |  |  |  |  | 
26 | C/C(=N/NC(=S)N1CCCCCCCC1)c1ccccn1 | 9 days | -0.3 days |  | Active |  |  |  |  | 1.7 days |  |  |  |  | 
27 | C/C(=N/NC(=S)N1CCC1)c1ccccn1 | 0 days | 1.7 days | Toxic | Active | Active | Toxic |  |  | 0 days |  |  |  |  | 
28 | C/C(=N/NC(=S)N1CCN(C)CC1)c1ccccn1 | 0 days | 0 days | Toxic |  | Active | Toxic |  |  | 0 days | Active |  |  | Toxic | 
29 | C/C(=N/NC(=S)N1CCc2ccccc2C1)c1ccccn1 |  | 3.5 days |  | Active | Active |  |  |  | 7.7 days |  |  |  |  | 
30 | C/C(=N/NC(=S)N1CCCCC1)c1ccccn1 | 0 days | -0.4 days |  |  |  |  |  |  | -0.4 days |  |  |  |  | 
31 | C/C(=N/NC(=S)N(C)CC(O)C(O)C(O)C(O)CO)c1ccccn1 (centres undefined) | 0.3 days | 0.2 days | Toxic |  |  |  |  |  | 1.4 days |  |  |  |  | 
32 | C/C(=N/NC(=S)N1CCCN(C)CC1)c1ccccn1 | 0 days | 0.8 days | Toxic |  |  | Toxic |  |  | 0.8 days |  |  |  | Toxic | 
33 | C/C(=N/NC(=S)N1CCCCC1C)c1ccccn1 (centres undefined) | 0 days |  | Toxic | Active | Active | Toxic |  |  | 0 days | Active |  |  |  | 
34 | C/C(=N/NC(=S)N1CC2CCC(CC2)C1)c1ccccn1 | 0.4 days |  | Toxic |  | Active |  |  |  |  | Active |  | 0.2 days |  | Active
35 | C/C(=N/NC(=S)N(C)CCc1ccccc1)c1ccccn1 |  | 0.4 days |  | Active | Active |  |  |  | 7.2 days |  |  |  |  | 
36 | C/C(=N/NC(=S)N(C)C1CCCCC1)c1ccccn1 | -0.3 days | 3.7 days | Toxic |  | Active | Toxic |  |  |  |  |  |  |  | 
37 | C/C(=N/NC(=S)N(CC(C)C)CC(C)C)c1ccccn1 | 0.5 days | -0.2 days | Toxic |  |  | Toxic |  |  | 0.8 days |  |  |  |  | 
38 | C/C(=N/NC(=S)N1CCC(c2ccccc2)CC1)c1ccccn1 |  | 0.4 days |  | Active | Active |  |  | Active |  |  |  |  |  | Active
39 | C/C(=N/NC(=S)N1CCc2ccccc21)c1ccccn1 | 0.3 days | 0.5 days | Toxic |  |  | Toxic |  |  | 0.3 days |  |  |  |  | 
